In patent publication US7514438B2, “Melanin concentrating hormone receptor antagonist” (Amgen, Inc., priority 2003, dated 2009):
Where two headings read alike, the source gives them in different places.

Experiments:
rat MCH1 receptor [1] = target: T1, rat MCH1 receptor (Rattus norvegicus, UniProt P97639); assay: HT-PS100 calcium mobilization functional assay; type: cell-based; set-up: expressed in transfected cells
[2] = target: T2, rat MCH 1 receptor (rMCH1R) (Rattus norvegicus, UniProt P97639); assay: 125I-MCH ligand binding assay, rMCH; details: HEK 293 membranes, 0.2 nM 125I native-MCH
T2 construct: expressed in transfected cells; host or cells: HEK 293 (membranes)
T2 sequence (P97639 whole entry): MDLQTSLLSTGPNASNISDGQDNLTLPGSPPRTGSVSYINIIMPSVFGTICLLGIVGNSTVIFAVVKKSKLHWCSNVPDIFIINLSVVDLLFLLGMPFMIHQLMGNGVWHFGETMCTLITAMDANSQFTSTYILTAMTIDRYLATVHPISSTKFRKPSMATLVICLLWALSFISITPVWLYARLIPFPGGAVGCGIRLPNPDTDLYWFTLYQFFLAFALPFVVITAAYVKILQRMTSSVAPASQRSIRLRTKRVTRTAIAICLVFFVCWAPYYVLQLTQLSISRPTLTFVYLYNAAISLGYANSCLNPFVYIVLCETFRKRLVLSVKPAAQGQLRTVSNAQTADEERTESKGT
Method in brief: (§1)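 HEK293 membranes expressing rat or human MCH1R (100 µg tissue) were incubated for 90 min at 30 °C with 0.2 nM 125I-native-MCH and test compound in HEPES/MgCl2/BSA buffer with protease inhibitors, pH 7.4. Non-specific binding used 1 µM cold MCH. Filter-bound radioactivity gave IC50 by nonlinear regression.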

[3] = target: T3, human MCH 1 receptor (hMCH1R) (Homo sapiens, UniProt Q99705); assay: 125I-MCH ligand binding assay, hMCH; details: HEK 293 membranes, 0.2 nM 125I native-MCH
T3 construct: expressed in transfected cells; host or cells: HEK 293 (membranes)
T3 sequence (Q99705 whole entry): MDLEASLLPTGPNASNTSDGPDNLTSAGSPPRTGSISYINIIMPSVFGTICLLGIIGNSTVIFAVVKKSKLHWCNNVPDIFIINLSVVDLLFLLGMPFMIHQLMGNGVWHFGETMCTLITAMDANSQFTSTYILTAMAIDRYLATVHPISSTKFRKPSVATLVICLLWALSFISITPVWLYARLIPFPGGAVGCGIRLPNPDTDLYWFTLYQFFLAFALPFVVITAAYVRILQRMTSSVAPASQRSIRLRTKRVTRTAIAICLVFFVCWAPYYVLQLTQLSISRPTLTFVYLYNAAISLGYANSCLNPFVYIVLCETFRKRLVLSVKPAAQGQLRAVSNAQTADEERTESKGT
Method in brief: as §1

rat MCH1 receptor [4] = target: T1, rat MCH1 receptor; assay: rMCH FLIPR calcium mobilization assay (CHOK1-Gqi cells); type: cell-based; set-up: expressed in transfected cells; host or cells: CHOK1-Gqi; details: CHOK1-Gqi cells, rat MCH1 receptor, 100 μM or less list
Protocol: Pharmacological analyses were conducted using either a HT-PS100 device (Axiom Biotechnologies, San Diego, Calif.), which provides high-resolution dose-response fluorometric measurements of [Ca^++]i mobilization, or using a FLIPR® device (Molecular Devices, Sunnyvale, Calif.).
Materials: Pharmacological analysis was conducted using a FLIPR® device (Molecular Devices, Sunnyvale, Calif.). CHOK1-Gqi cells were stably transfected with the rat MCH1 receptor and maintained under G418 antibiotic pressure. FLIPR® assay buffer consisted of phenol red-free DMEM+2.5 mM probenecid. […]. Test compounds were prepared as 10 mM stocks in 100% DMSO and diluted to a top end working concentration of 10 μM in 96 well black, flat bottom, collagen-I coated plates (Becton Dickinson, Bedford, Mass.).
Methods: CHOK1-Gqi cells stably expressing MCH1R were maintained in Dulbeco's modified Eagle's medium (GIBCO/Life Technologies, Rockville, Md.) supplemented with 2 mM glutamine and 10% dialyzed fetal bovine serum (HyCLone, Logan, Utah) at 37° C., 5% CO2. Cells were harvested by 10′ treatment with Versene (GIBCO/Life Technologies) followed by trituration, washing twice with cold (4° C.) hybridoma medium (Serum/Protein free, with L-glutamine, sodium bicarbonate, MOPS buffer) (Sigma-Aldrich Corp, St. Louis, Mo.) and replated onto 96 well black, flat bottom, collagen-I coated plates to a density of 10,000 cells/well. The cells were then loaded with the fluorescent calcium indicator Fura-2 (Molecular Probes, Eugene, Oreg.) at 1.6 μM for 60′ at room temperature. The loaded cells were then washed twice with 90 μl/well of wash buffer (1×HBSS, 20 mM HEPES, 2.5 mM probenecid).
Receptor-stimulated intracellular calcium responses were detected using FLIPR® by monitoring increases in the Fura-2 fluorescence response.
Test compounds were screened for MCH1R activity in the FLIPR® for both agonist and antagonist action. Agonist mode challenges were conducted at a maximum gradient concentration of 1 μM. Antagonist activity was tested by 10 min pre-incubation of cells at a compound concentration of defined to be 300× the EC50 of MCH (typically 1 μM), with subsequent introduction of MCH at a concentration 5-fold of EC50 as determined in preliminary experiments. […].
Several fixed concentrations of antagonist compounds were prepared in 10-fold increments, and presented to the cells in a gradient of increasing MCH concentration. Values for compound pA2 were calculated by linear regression of MCH EC50s as a function of antagonist concentration.

human MCH receptor = target: T4, human MCH receptor (Homo sapiens, UniProt Q99705); assay: hMCH FLIPR calcium mobilization assay; type: cell-based
T4 construct: expressed in transfected cells
T4 sequence (Q99705 whole entry): as above

[5] = HEK 293 cells stably transfected with rat MCH1 receptor, 100 nM or less list, read-out: Ki in the HT-PS100 assay
[6] = 100 μM or less list, read-out: IC50 in the rMCH binding assay
[7] = 100 nM or less list, read-out: IC50 in the hMCH binding assay
[8] = 100 μM or less list, read-out: IC50 in the hMCH binding assay
[9] = read-out: Ki in the rMCH FLIPR assay
[10] = 100 μM or less list, read-out: Ki in the hMCH FLIPR assay
[11] = 100 nM or less list, read-out: IC50 in the rMCH binding assay
[12] = 100 nM or less list, read-out: Ki in the hMCH FLIPR assay

T1 sequence (P97639 whole entry): as the sequence (P97639 whole entry) above

Ki (rat MCH1 receptor [1]; [5])	IC50 [2, 6]	IC50 [3, 7]	IC50 [3, 8]	Ki (rat MCH1 receptor [4]; [9])	Ki (human MCH receptor; [10])	IC50 [2, 11]	Ki (human MCH receptor; [12])	SMILES	Ki (rat MCH1 receptor [1])	IC50 ([2]; IC50 in the rMCH binding assay, 100 μM or less list)	IC50 ([3]; IC50 in the hMCH binding assay, 100 μM or less list)	Ki (rat MCH1 receptor [4]; Ki in the rMCH FLIPR assay)	Ki (human MCH receptor; Ki in the hMCH FLIPR assay, 100 nM or less list)	Ki (human MCH receptor; Ki in the hMCH FLIPR assay, 100 μM or less list)
≤ 0.1 µM	≤ 100 µM	≤ 0.1 µM	≤ 100 µM	≤ 100 µM	≤ 100 µM			COc1cccc([C@@H](c2nnnn2-c2c(C)cccc2C)N2CCN(C/C=C/c3ccccc3)CC2)c1 (racemic) [Compound 77, 1-[[1-(2,6-dimethylphenyl)-1H-tetrazol-5-yl]-(3-methoxyphenyl)methyl]-4-(3-phenylallyl)piperazine]						
≤ 0.1 µM	≤ 100 µM		≤ 100 µM	≤ 100 µM	≤ 100 µM			Cc1cccc([C@@H](c2nnnn2-c2c(C)cccc2C)N2CCN(C/C=C/c3ccccc3)CC2)c1 (racemic) [Compound 61, 1-{[1-(2,6-dimethylphenyl)-1H-tetrazol-5-yl]-m-tolylmethyl}-4-(3-phenylallyl) piperazine]						
≤ 0.1 µM	≤ 100 µM	≤ 0.1 µM	≤ 100 µM	≤ 100 µM	≤ 100 µM	≤ 0.1 µM		Cc1cccc(C)c1-n1nnnc1[C@H](c1ccccc1)N1CCN(C/C=C/c2ccccc2)CC1 [Compound 1, 1-{[1-(2,6-dimethyiphenyl)-1H-tetrazol-5-yl]phenylmethyl}-4-(3-phenylallyl)piperazine]						
≤ 0.1 µM	≤ 100 µM	≤ 0.1 µM	≤ 100 µM	≤ 100 µM	≤ 100 µM		≤ 0.1 µM	Cc1cccc(C)c1-n1nnnc1[C@H](c1ccccc1)N1CCN(C/C=C/c2ccccc2)CC1 (racemic) [Compound 4, 1-{[1-(2,6-dimethyiphenyl)-1H-tetrazol-5-yl]phenylmethyl}-4-(3-phenylallyl)piperazine]						
≤ 0.1 µM	≤ 100 µM		≤ 100 µM	≤ 100 µM	≤ 100 µM		≤ 0.1 µM	Cc1cccc(C)c1-n1nnnc1[C@H](c1cccc(F)c1)N1CCN(C/C=C/c2ccccc2)CC1 (racemic) [Compound 48, 1-[[1-(2,6-dimethyiphenyl)-1H-tetrazol-5-yl]-(3-fluorophenyl)methyl]-4-(3-phenylallyl)piperazine]						
≤ 0.1 µM	≤ 100 µM		≤ 100 µM	≤ 100 µM	≤ 100 µM	≤ 0.1 µM	≤ 0.1 µM	Cc1cccc(C)c1-n1nnnc1[C@H](c1cccc(C#N)c1)N1CCN(C/C=C/c2ccccc2)CC1 (racemic) [Compound 79, 3-{[1-(2,6-dimethylphenyl)-1H-tetrazol-5-yl]-[4-(3-phenylallyl)piperazin-1-yl]methyl}benzonitrile]						

Continued, compound first:

SMILES	Ki (rat MCH1 receptor [1]; [5])	IC50 [2, 6]	IC50 [3, 7]	IC50 [3, 8]	Ki (rat MCH1 receptor [4]; [9])	Ki (human MCH receptor; [10])	IC50 [2, 11]	Ki (human MCH receptor; [12])	Ki (rat MCH1 receptor [1])	IC50 ([2]; IC50 in the rMCH binding assay, 100 μM or less list)	IC50 ([3]; IC50 in the hMCH binding assay, 100 μM or less list)	Ki (rat MCH1 receptor [4]; Ki in the rMCH FLIPR assay)	Ki (human MCH receptor; Ki in the hMCH FLIPR assay, 100 nM or less list)	Ki (human MCH receptor; Ki in the hMCH FLIPR assay, 100 μM or less list)
Cc1cccc(C)c1-n1nnnc1[C@H](c1ccc(-n2ccnc2)cc1)N1CCN(C/C=C/c2ccccc2)CC1 (racemic) [Compound 78, 1-[[1-(2,6-dimethylphenyl)-1H-tetrazol-5-yl]-(4-imidazol-1-ylphenyl)methyl]-4-(3-phenylallyl)piperazine]	≤ 0.1 µM	≤ 100 µM	≤ 0.1 µM	≤ 100 µM	≤ 100 µM	≤ 100 µM								
Cc1cccc(C)c1-n1nnnc1[C@H](c1cccc(OCCO)c1)N1CCN(C/C=C/c2ccccc2)CC1 (racemic) [Compound 84, 2-(3-{[1-(2,6-dimethylphenyl)-1H-tetrazol-5-yl]-[4-(3-phenylallyl)piperazin-1-yl]methyl}phenoxy)ethanol]	≤ 0.1 µM	≤ 100 µM	≤ 0.1 µM	≤ 100 µM	≤ 100 µM	≤ 100 µM	≤ 0.1 µM							
Cc1cccc(C)c1-n1nnnc1[C@H](c1cccc(O)c1)N1CCN(C/C=C/c2ccccc2)CC1 (racemic) [Compound 82, 3-{[1-(2,6-dimethylphenyl)-1H-tetrazol-5-yl]-[4-(3-phenylallyl)piperazin-1-yl]methyl}phenol]									≤ 0.1 µM	≤ 100 µM	≤ 100 µM	≤ 100 µM	≤ 0.1 µM	≤ 100 µM
Cc1cccc(C)c1-n1nnnc1[C@H](c1ccc(Cl)c(Cl)c1)N1CCN(C/C=C/c2ccccc2)CC1 (racemic) [Compound 60, 1-{(3,4-dichlorophenyl)-[1-(2,6-dimethylphenyl)-1H-tetrazol-5-yl]methyl}-4-(3-phenylallyl)piperazine]	≤ 0.1 µM	≤ 100 µM		≤ 100 µM	≤ 100 µM	≤ 100 µM								
